From ChEMBL document CHEMBL1201862, “PubChem BioAssay data set” (2004)
The source made the active and inactive calls.

Assays:
[1] = biological target: Botulinum neurotoxin type A (Clostridium botulinum (strain Hall / ATCC 3502 / NCTC 13319 / Type A), UniProt P0DPI1); assay: High-throughput multiplex microsphere dose response for inhibitors of toxin protease, specifically Botulinum neurotoxin light chain A protease, compounds from Cherry Pick 02.; type: functional; conditions: read-out: EC50_MICROM
[2] = biological target: Botulinum neurotoxin type F (Clostridium botulinum, UniProt P30996); assay: High-throughput multiplex microsphere dose response for inhibitors of toxin protease, specifically Botulinum neurotoxin light chain F protease, compounds from Cherry Pick 02.; type: functional; conditions: read-out: EC50_MICROM
[3] = biological target: T1, Apoptotic protease-activating factor 1 (Homo sapiens, UniProt O14727); assay: SAR analysis of small molecule inhibitors of Apaf-1 in a Fluorescent assay.; type: functional; conditions: read-out: IC50_Mean
T1 sequence (O14727 whole entry): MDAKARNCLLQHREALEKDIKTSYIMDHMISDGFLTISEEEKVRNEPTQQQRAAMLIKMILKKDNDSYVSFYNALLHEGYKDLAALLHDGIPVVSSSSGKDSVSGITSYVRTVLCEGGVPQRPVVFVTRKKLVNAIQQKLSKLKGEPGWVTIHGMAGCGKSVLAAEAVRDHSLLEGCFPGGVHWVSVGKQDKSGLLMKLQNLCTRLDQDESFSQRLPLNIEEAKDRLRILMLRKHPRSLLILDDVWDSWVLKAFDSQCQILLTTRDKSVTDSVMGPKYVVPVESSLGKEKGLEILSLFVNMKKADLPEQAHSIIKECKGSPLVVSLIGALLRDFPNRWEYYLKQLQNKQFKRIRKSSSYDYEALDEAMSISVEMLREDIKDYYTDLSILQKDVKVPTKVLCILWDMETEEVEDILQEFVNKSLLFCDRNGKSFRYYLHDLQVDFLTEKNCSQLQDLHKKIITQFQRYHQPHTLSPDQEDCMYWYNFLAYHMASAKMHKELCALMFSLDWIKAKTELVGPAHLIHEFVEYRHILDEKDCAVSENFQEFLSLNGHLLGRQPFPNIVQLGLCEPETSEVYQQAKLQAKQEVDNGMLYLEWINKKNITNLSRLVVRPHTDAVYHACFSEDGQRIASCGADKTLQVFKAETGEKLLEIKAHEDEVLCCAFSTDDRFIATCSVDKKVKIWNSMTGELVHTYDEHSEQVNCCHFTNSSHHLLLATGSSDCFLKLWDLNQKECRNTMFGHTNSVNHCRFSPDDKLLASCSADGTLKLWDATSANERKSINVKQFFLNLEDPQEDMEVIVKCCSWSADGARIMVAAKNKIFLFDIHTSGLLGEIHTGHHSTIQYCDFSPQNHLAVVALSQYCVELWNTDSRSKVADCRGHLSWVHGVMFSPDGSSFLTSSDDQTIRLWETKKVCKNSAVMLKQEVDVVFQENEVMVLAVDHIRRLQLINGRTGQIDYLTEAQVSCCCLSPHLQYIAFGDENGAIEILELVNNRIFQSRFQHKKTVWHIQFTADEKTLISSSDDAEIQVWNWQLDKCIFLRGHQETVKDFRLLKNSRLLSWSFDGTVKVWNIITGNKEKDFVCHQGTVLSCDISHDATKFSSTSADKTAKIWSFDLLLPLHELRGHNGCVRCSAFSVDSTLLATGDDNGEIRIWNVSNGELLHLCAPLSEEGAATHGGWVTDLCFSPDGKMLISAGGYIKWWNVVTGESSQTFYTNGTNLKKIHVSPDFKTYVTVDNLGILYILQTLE

[4] = biological target: Tyrosine-protein kinase Lck (Homo sapiens, UniProt P06239); type: functional;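 also: lck was assayed as one member of a kinase panel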
[5] = biological target: Hepatocyte growth factor receptor (Homo sapiens, UniProt P08581); type: functional;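 also: kinase panel profiling across the kinome, with MET as the panel member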
[6] = biological target: Cyclin-dependent kinase 7 (Homo sapiens, UniProt P50613); type: functional;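 also: value comes from a kinome-wide kinase profiling panel in which CDK7 is one member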
[7] = biological target: Death-associated protein kinase 3 (Homo sapiens, UniProt O43293); type: functional;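 also: measured as one member of a kinome-wide profiling panel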
[8] = biological target: Mitogen-activated protein kinase kinase kinase kinase 2 (Homo sapiens, UniProt Q12851); type: functional;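 also: measured as one member of a kinome-wide kinase panel, with MAP4K2 as the panel entry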
Sequence of Mitogen-activated protein kinase kinase kinase kinase 2 (Q12851 whole entry): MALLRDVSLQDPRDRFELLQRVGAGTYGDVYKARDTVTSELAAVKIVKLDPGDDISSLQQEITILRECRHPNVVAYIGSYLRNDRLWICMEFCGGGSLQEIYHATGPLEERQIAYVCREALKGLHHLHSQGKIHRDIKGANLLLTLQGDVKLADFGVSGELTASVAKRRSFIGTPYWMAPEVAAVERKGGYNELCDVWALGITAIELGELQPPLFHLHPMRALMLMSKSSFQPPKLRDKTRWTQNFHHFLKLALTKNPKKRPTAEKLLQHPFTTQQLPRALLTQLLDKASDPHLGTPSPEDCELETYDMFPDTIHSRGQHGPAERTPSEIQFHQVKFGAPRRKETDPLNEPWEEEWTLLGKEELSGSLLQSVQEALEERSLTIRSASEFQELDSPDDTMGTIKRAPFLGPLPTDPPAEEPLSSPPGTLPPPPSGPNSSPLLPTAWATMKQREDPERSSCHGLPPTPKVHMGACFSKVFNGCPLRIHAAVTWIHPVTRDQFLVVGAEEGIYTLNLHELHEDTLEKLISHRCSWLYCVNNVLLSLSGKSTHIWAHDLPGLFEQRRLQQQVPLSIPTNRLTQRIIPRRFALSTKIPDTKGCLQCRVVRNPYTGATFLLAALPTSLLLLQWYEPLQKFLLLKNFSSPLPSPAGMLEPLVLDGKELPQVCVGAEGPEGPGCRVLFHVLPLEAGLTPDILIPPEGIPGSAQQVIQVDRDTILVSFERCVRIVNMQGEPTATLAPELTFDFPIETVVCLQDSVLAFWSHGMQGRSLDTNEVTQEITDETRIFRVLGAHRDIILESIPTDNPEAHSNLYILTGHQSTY

[9] = biological target: Mitogen-activated protein kinase kinase kinase kinase 4 (Homo sapiens, UniProt O95819); type: functional
[10] = biological target: Calcium/calmodulin-dependent protein kinase type II subunit alpha (Homo sapiens, UniProt Q9UQM7); assay: Navigating the Kinome. Panel member name: CAMK2A; type: functional
[11] = biological target: Cyclin-dependent kinase 8 (Homo sapiens, UniProt P49336); assay: Navigating the Kinome. Panel member name: CDK8; type: functional
[12] = biological target: Platelet-derived growth factor receptor alpha (Homo sapiens, UniProt P16234); assay: Navigating the Kinome. Panel member name: PDGFRA; type: functional
[13] = biological target: G protein-coupled receptor kinase 5 (Homo sapiens, UniProt P34947); assay: Navigating the Kinome. Panel member name: GPRK5; type: functional
[14] = biological target: Tyrosine-protein kinase JAK3 (Homo sapiens, UniProt P52333); type: functional
[15] = biological target: Fibroblast growth factor receptor 1 (Homo sapiens, UniProt P11362); type: functional
[16] = biological target: Serine/threonine-protein kinase Chk1 (Homo sapiens, UniProt O14757); type: functional;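 also: measured as one member of a kinome-wide kinase profiling panel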
[17] = biological target: Serine/threonine-protein kinase PAK 4 (Homo sapiens, UniProt O96013); type: functional;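 also: value obtained within a kinome profiling panel in which PAK4 was one of the panel members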
[18] = biological target: Dual specificity tyrosine-phosphorylation-regulated kinase 1A (Homo sapiens, UniProt Q13627); type: functional;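 also: measured against DYRK1A as one member of a broad kinome profiling panel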
[19] = biological target: cAMP-dependent protein kinase catalytic subunit PRKX (Homo sapiens, UniProt P51817); type: functional
[20] = biological target: Tyrosine-protein kinase Fyn (Homo sapiens, UniProt P06241); type: functional
Sequence of Tyrosine-protein kinase Fyn (P06241 whole entry): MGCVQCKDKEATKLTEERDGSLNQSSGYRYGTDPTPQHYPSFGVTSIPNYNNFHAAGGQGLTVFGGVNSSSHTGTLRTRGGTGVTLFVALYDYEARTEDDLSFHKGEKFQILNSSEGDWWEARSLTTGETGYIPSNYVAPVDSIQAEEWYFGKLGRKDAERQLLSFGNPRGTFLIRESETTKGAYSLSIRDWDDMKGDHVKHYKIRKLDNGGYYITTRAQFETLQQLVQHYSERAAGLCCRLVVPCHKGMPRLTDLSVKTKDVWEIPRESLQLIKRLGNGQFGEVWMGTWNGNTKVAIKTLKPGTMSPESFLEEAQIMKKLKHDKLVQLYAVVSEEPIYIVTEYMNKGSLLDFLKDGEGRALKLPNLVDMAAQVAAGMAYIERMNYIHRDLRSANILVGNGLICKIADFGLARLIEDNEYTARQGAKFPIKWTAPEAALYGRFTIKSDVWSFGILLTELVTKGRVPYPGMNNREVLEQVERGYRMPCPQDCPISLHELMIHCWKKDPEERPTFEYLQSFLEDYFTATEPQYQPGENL

[21] = biological target: Serine/threonine-protein kinase pim-1 (Homo sapiens, UniProt P11309); type: functional
Sequence of Serine/threonine-protein kinase pim-1 (P11309 whole entry): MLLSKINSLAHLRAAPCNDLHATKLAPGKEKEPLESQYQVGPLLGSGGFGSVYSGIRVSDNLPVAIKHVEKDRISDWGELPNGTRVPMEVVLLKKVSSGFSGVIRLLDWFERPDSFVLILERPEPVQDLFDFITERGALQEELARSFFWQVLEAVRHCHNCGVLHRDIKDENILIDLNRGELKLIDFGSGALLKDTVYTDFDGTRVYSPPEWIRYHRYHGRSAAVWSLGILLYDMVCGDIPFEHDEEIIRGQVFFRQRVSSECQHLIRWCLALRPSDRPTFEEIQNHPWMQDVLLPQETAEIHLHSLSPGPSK

[22] = biological target: Serine/threonine-protein kinase TAO1 (Homo sapiens, UniProt Q7L7X3); type: functional
[23] = biological target: Serine/threonine-protein kinase D3 (Homo sapiens, UniProt O94806); type: functional;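 also: determined within a kinase panel screen, with PRKCN as the panel member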
[24] = biological target: Mitogen-activated protein kinase 8 (Homo sapiens, UniProt P45983); type: functional;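 also: value comes from one member of a kinome-wide kinase profiling panel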
[25] = biological target: Casein kinase I isoform alpha (Homo sapiens, UniProt P48729); type: functional
[26] = biological target: Dual specificity protein kinase CLK4 (Homo sapiens, UniProt Q9HAZ1); type: functional
Activin receptor type-1 = Activin receptor type-1 (Homo sapiens, UniProt Q04771); assay: Navigating the Kinome. Panel member name: ACVR1; type: functional
Sequence of Activin receptor type-1 (Q04771 whole entry): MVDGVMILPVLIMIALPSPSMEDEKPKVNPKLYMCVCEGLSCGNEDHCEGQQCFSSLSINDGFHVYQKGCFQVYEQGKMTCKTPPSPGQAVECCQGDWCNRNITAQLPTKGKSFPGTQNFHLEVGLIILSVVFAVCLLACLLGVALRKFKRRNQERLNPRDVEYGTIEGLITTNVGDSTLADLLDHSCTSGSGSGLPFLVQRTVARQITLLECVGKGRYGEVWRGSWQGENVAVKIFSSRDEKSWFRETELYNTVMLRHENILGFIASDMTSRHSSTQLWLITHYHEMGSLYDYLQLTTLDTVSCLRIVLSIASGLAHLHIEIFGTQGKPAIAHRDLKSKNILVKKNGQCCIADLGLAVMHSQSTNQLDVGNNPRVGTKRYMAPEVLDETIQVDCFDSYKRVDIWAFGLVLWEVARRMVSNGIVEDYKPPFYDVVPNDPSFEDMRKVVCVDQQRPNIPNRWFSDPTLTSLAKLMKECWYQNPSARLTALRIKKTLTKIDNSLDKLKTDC

[27] = biological target: Serine/threonine-protein kinase Nek2 (Homo sapiens, UniProt P51955); type: functional
[28] = biological target: Leukocyte tyrosine kinase receptor (Homo sapiens, UniProt P29376); assay: Navigating the Kinome. Panel member name: LTK; type: functional
Sequence of Leukocyte tyrosine kinase receptor (P29376 whole entry): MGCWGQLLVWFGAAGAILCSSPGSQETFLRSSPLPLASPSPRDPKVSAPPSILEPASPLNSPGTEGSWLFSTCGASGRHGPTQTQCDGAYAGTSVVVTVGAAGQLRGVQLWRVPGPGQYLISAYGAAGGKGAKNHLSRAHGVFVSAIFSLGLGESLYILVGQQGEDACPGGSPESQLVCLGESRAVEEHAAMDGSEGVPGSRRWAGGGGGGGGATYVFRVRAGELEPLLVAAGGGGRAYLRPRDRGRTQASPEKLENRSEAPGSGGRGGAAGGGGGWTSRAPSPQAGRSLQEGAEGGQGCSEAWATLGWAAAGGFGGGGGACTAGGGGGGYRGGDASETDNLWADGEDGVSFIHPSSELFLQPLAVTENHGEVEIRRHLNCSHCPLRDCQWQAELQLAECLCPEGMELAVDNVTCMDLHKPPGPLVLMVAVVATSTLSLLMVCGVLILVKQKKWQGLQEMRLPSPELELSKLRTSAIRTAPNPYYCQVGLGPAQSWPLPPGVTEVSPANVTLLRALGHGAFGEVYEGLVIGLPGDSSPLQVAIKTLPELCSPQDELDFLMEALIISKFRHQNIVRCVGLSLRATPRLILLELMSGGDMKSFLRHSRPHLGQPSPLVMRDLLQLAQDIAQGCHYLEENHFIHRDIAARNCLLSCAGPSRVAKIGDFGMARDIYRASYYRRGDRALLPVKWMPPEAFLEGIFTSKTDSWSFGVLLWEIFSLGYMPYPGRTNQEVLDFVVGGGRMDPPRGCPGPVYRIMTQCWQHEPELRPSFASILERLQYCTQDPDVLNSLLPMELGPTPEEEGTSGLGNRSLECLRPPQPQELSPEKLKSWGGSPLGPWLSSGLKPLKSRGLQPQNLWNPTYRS

[29] = biological target: Tyrosine-protein kinase BTK (Homo sapiens, UniProt Q06187); type: functional
[30] = biological target: Mitogen-activated protein kinase 14 (Homo sapiens, UniProt Q16539); type: functional;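 also: part of a kinome-wide panel, MAPK14 entry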
[31] = biological target: Dual specificity tyrosine-phosphorylation-regulated kinase 1B (Homo sapiens, UniProt Q9Y463); assay: Navigating the Kinome. Panel member name: DYRK1B; type: functional
Aurora kinase B = Aurora kinase B (Homo sapiens, UniProt Q96GD4); type: functional
Sequence of Aurora kinase B (Q96GD4 whole entry): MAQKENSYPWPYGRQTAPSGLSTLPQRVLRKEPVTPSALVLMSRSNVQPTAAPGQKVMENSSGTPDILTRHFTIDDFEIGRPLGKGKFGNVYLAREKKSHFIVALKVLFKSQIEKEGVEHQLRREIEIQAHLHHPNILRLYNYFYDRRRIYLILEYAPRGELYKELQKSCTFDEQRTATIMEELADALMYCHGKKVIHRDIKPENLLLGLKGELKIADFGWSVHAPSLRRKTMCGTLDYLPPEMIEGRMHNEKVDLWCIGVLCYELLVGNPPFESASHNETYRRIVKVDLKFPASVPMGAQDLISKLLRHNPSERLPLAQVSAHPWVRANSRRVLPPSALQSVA

[32] = biological target: Vascular endothelial growth factor receptor 1 (Homo sapiens, UniProt P17948); type: functional;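 also: measured within a kinome-wide profiling panel, FLT1 as the panel member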
[33] = biological target: Glycogen synthase kinase-3 alpha (Homo sapiens, UniProt P49840); type: functional;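 also: GSK3A result taken from a broad kinome-wide kinase panel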
[34] = biological target: ALK tyrosine kinase receptor (Homo sapiens, UniProt Q9UM73); type: functional;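 also: ALK tested as one member of a kinase panel screen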
Sequence of ALK tyrosine kinase receptor (Q9UM73 whole entry): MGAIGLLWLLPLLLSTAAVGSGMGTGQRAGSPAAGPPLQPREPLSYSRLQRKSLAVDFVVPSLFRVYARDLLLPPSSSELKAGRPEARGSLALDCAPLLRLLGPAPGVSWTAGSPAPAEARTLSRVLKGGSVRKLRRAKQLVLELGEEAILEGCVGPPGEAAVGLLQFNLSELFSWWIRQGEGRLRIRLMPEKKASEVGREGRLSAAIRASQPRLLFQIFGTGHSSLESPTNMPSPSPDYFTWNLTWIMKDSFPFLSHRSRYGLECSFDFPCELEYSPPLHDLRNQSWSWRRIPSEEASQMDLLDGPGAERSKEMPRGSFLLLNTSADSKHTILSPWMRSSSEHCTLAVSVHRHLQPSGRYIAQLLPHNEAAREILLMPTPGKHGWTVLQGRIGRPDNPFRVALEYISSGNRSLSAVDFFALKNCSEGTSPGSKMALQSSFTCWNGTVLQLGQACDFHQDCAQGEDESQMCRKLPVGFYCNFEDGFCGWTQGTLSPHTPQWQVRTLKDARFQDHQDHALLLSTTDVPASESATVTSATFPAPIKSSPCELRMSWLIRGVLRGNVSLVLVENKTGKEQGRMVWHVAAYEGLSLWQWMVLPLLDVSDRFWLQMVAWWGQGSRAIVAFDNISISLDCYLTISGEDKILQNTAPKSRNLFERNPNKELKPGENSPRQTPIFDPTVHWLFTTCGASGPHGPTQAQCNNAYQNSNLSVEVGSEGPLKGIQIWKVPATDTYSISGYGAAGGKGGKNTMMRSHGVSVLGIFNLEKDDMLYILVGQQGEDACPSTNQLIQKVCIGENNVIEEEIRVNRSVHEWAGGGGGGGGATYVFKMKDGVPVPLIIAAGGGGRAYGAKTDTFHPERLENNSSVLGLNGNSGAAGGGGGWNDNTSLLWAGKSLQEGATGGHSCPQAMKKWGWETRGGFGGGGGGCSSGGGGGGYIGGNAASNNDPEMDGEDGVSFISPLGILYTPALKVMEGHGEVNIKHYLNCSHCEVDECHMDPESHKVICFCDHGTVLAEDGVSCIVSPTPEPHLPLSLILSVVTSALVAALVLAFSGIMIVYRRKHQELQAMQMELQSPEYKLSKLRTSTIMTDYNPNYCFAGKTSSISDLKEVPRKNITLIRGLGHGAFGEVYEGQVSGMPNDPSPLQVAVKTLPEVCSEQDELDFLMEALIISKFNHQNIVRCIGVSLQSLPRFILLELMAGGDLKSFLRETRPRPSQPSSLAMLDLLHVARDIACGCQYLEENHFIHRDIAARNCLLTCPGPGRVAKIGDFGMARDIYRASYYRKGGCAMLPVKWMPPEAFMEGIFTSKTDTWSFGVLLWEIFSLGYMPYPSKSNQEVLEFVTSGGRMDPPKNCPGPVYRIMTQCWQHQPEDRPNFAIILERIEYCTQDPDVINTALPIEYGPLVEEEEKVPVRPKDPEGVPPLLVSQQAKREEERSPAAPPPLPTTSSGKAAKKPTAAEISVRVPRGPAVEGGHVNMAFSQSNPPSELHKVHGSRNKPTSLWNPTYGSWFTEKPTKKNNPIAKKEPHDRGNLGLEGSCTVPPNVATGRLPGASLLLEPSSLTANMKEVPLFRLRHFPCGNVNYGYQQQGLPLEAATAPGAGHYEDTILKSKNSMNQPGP

[35] = biological target: Heat shock protein HSP 90-alpha (Homo sapiens, UniProt P07900); type: functional, organism-based
H9c2 = assay: cells; type: functional, cell-based; conditions: Rattus norvegicus, H9c2, Myocardium;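 also: confirmatory concentration-response retest of ultra-high-throughput screening hits for modulation of myocardial damage; cell death induced by hydrogen peroxide oxidative stress; compound pretreatment for 60 min then peroxide exposure for 2 h; potency is for protecting the cells against peroxide damage rather than for killing them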
[36] = biological target: T2, High affinity choline transporter 1 (Homo sapiens, UniProt Q9GZV3); assay: CHT inhibitors, dose response, cell-based, 5-point CRC, membrane potential dye (AID 504840); type: functional
T2 sequence (Q9GZV3 whole entry): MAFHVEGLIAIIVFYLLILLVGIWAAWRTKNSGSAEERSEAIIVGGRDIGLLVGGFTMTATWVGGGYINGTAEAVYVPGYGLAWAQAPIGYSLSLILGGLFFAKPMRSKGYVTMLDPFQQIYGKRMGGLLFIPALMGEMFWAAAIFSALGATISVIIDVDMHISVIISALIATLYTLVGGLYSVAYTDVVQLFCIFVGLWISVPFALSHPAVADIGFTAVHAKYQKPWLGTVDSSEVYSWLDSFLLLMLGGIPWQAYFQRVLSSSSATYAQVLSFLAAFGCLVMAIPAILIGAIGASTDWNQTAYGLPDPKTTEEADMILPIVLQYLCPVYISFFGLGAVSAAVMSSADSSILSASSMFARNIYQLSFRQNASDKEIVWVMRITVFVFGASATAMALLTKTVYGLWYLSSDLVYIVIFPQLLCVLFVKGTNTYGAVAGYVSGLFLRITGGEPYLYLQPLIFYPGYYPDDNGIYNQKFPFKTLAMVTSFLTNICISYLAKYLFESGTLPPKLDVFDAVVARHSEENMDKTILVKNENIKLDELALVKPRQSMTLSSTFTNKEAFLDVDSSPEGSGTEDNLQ

[37] = biological target: T2, High affinity choline transporter 1; assay: CHT inhibitors, dose response, cell-based, 10-point CRC, membrane potential dye (AID 588401); type: functional;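 also: membrane potential dye fluorescence of choline-evoked depolarization via CHT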
[38] = biological target: Cyclin-dependent kinase 19 (Homo sapiens, UniProt Q9BWU1); assay: Navigating the Kinome. Panel member name: CDC2L6; type: functional

Compound: O=C(Cc1ccccc1)c1ccccn1
- EC50 [1]: 8.6 µM (active)
- EC50 [2]: > 20 µM (inactive)

Compound: Cc1cc(NC(=O)C2CC2)sc1C(=O)Nc1ccc2[nH]c(-c3cc(F)ccc3F)nc2c1
- IC50 [3]: 42.4 µM (active)

Compound: CCN1c2cc(N)ccc2-c2ccc(N)cc2C1(O)c1ccccc1 (configuration not stated)
- Ki [4]: > 6.31 µM (inactive)
- Ki [5]: 2.51 µM (active)
- Ki [6]: > 3.98 µM (inactive)
- Ki [7]: > 5.01 µM (inactive)
- Ki [8]: 2 µM (active)
- Ki [9]: 3.16 µM (active)
- Ki [10]: > 3.98 µM (inactive)
- Ki [11]: > 3.98 µM (inactive)
- Ki [12]: 1.26 µM (active)
- Ki [13]: > 3.98 µM (inactive)
- Ki [14]: 3.16 µM (active)
- Ki [15]: > 3.98 µM (inactive)
- Ki [16]: 2 µM (active)
- Ki [17]: > 5.01 µM (inactive)
- Ki [18]: 0.794 µM (active)
- Ki [19]: 2 µM (active)
- Ki [20]: > 6.31 µM (inactive)
- Ki [21]: > 6.31 µM (inactive)
- Ki [22]: 3.16 µM (active)
- Ki [23]: 3.98 µM (active)
- Ki [24]: > 5.01 µM (inactive)
- Ki [25]: > 3.98 µM (inactive)
- Ki [26]: 0.398 µM (active)
- Ki (Activin receptor type-1): > 3.98 µM (inactive)
- Ki [27]: 2 µM (active)
- Ki [28]: 2 µM (active)
- Ki [29]: 3.98 µM (active)
- Ki [30]: > 3.98 µM (inactive)
- Ki [31]: 2.51 µM (active)
- Ki (Aurora kinase B): > 3.98 µM (inactive)
- Ki [32]: 3.16 µM (active)
- Ki [33]: > 3.98 µM (inactive)
- Ki [34]: > 6.31 µM (inactive)

Compound: Oc1c(Br)cc(Br)cc1/C=N/Cc1ccccc1
- AC50 [35]: 5.31 µM (active)
- IC50 (H9c2): > 79 µM (inactive)
- IC50 [36]: 9.73 µM (active)
- IC50 [37]: 3.16 µM (active)

Compound: Cn1cc(Nc2ncc(Br)c(Nc3ccccc3S(C)(=O)=O)n2)cn1
- Ki [38]: > 100 µM (inactive)
- Ki [34]: 2.51 µM (active)
